In series [1] the test system is mold and mold spores. The experiment in a line: Fumigation of an approximately 50,000 ft^2 mold-contaminated building with chlorine dioxide gas (Example 1). The following applies: 2,500 to 3,000 ppmv over 3 hours; approx. 75° F., approx. 75% relative humidity. The procedure:
An approximately 50,000 ft^2 mold-contaminated building (1 million cubic feet approximately) was remediated by fumigating the building with chlorine dioxide gas at a concentration within the range of 2,500 to 3,000 ppmv over a period of 3 hours. Temperature was maintained at approximately 75° F. and the relative humidity was maintained at approximately 75% before and during fumigation. Carpets and other porous materials within the contaminated building were not removed prior to fumigation. […] Porous surfaces that were black, grey and green shades prior to treatment were returned to original appearance. The mold mass was also substantially eliminated such that one to four square foot samples were required to collect 0.1 to 0.25 grams of mold residue resulting in a 99+ percent elimination in mold mass. Samples of the treated material were analyzed by PCR (polymerase chain reaction) analysis for DNA. Depending upon the initial concentration levels a 3 to 7 log reduction in DNA was observed.

For series [2], the system named is mold and mold spores. The experiment in a line: Fumigation of an approximately 6000 square feet mold-contaminated structure with chlorine dioxide gas (Example 2). The following applies: 600 to 1300 ppmv for 12 hours, total CT over 9000 ppmv hours; 70 to 100° F., minimum 65% relative humidity; including mold underneath wallpaper. The procedure:
A structure of approximately 6000 square feet consisting of three above surface floors and a basement was located that had developed significant mold growth of a variety of species due to water intrusion and appropriate environmental conditions. […] Mold growth was visible and abundant upon walls, ceilings and other surfaces.
The temperature of the structure was raised and maintained in the range of 70 to 100° F. (21 to 38° C.) and the relative humidity was raised to a minimum of 65%. Chlorine dioxide solution was generated in a closed fluid loop by the process described in U.S. Pat. No. 6,468,479. Chlorine dioxide gas was added to the structure at such a rate as to maintain a concentration of between 600 and 1300 ppmv for a 12 hour period and a total CT of over 9000 ppmv hours of chlorine dioxide.
Chlorine dioxide concentration and purity were monitored by AWWA standard method 6500-ClO2-E in solution phase and a modification therewith to adapt the procedure for gas phase sampling. […] The maximum chlorine dioxide concentration detected exterior to the containment tent was less than 2 parts per billion, well within the maximum exposure guidelines established.
Following treatment mold viability was evaluated in the structure. […]

For a further series, the system named is mold spores. The experiment in a line: Mold remediation with chlorine dioxide gas, general finding. The following applies: time averaged concentration about 500 to 1500 ppmv over a 12 hour period. As to the method: It is an aspect of this invention to minimize the chlorine dioxide concentration and CT to the extent possible to assure decontamination while avoiding damage to building contents such as electronic equipment (e.g., telephone equipment, computers, copiers, and other electronic office equipment), furnishings, and the like. Typical chlorine dioxide concentrations are in the range of 500 to 3000 ppmv, and exposure times are typically about 8 to 12 hours. For mold remediation, a time averaged chlorine dioxide gas concentration in the range of about 500 to 1500 ppmv over a 12 hour period has been found effective for killing mold spores and eliminating allergenic effects.

The text below walks through data of patent US20090081310A1, “METHOD FOR R[…] STRUCTURE CO[…] MOLD” (priority 2004, published 2009).

Turning to `[O][Cl+][O-]` [chlorine dioxide gas, chlorine dioxide], in the series with mold and mold spores [1], the “elimination in mold mass” value is listed as at least 99%; the “viable mold and mold spores in the facility” value was “substantially eliminated viable mold and mold spores”. The “mold and mold spores rendered non viable” value in the series with mold and mold spores [2] is reported as around 100%. Further, in the series with mold spores, the “killing mold spores and eliminating allergenic effects” value is on record as “effective”.
